Each compound was assayed against PARP7 (Homo sapiens (Human), UniProt Q7Z3E1) (assay: In vitro enzymology experiment of PARP7 (enzymatic inhibition)).
Assay type: biochemical
Description: II. In Vitro Enzymology Experiment of PARP2, 3, 5A, 5B, 7, 12, and 15
1. Preparation of 384-well histone-coated plate: 25 μL of histone solution was added to each well, and the plate was incubated overnight at 4° C.
2. Preparation of PBST buffer, blocking buffer, and assay buffer
3. The 384-well histone-coated plate was washed three times with PBST buffer. The plate was blocked by 50 μL of blocking buffer for 1 hour at room temperature. The plate was then washed three times with PBST buffer.
2000× compound was prepared in a 96-well source plate. 50 nL of the compound was transferred from the source plate to a 96-well intermediate plate, and 39.95 μL of assay buffer was added to each well. The plate was shaken well and centrifuged at 1000 rpm for 1 minute.
5 μL of compound DMSO solution was transferred to each well.
An enzyme mixture was incubated at 25° C. for 10 minutes.
10 μL of the enzyme mixture was added, and incubated with the compound at room temperature for 10 minutes.
10 μL of assay buffer was added to the negative control well of the assay plate.
The plate was then washed three times with PBST buffer.
25 μL of Stre-HRP was added.
The plate was incubated at room temperature for 1 hour and washed three times with PBS buffer.
25 μL of QuantaRed Enhancer mix was added. The plate was incubated for 10 minutes.
2.5 μL of QuantaRed Stop Solution was added to terminate the peroxidase reaction, and the plate was shaken for 10 to 30 seconds.
7. Paradigm was used to read the plate immediately to detect the readings at Ex550/Em620.
Using equation (1) to fit the data in Excel to obtain inhibition values
Using equation (2) to fit the data in XL-Fit to obtain IC50 values
Y is the percentage of inhibition, and X is the compound concentration.

Chain of PARP7 (Q7Z3E1 whole entry): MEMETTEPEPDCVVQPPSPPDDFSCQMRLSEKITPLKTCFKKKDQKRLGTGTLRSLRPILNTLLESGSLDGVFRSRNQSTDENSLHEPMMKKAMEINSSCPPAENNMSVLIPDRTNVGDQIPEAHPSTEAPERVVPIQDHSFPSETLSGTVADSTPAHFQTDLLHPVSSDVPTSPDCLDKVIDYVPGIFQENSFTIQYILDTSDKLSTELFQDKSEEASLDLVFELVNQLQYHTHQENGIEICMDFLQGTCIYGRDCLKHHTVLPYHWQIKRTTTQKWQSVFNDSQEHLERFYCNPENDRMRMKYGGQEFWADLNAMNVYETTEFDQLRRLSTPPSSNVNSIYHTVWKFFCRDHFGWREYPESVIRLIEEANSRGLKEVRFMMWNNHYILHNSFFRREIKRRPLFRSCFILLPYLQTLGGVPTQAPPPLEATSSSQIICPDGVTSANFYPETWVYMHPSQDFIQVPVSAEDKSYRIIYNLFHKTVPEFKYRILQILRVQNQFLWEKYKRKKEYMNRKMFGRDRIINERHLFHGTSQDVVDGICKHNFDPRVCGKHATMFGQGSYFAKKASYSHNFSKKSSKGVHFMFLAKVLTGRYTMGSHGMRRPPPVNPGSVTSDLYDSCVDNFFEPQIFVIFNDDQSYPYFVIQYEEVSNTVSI

Row | SMILES | IC50 [nM]
1 | C[C@@H](Cc1c[nH]c(=O)c(C(F)(F)F)c1)OC(=O)N1CCC(Nc2ncc(C(F)(F)F)cn2)CC1 [Example 72, (S)-1-(6-Oxo-5-(trifluoromethyl)-1,6-dihydropyridin-3-yl)propan-2-yl 4-((5-(trifluoromethyl)pyrimidin-2-yl)amino) piperidine-1-carboxylate] | 4.98
2 | C[C@@H](Cc1c[nH]c(=O)c(C(F)(F)F)c1)OC(=O)N1CCN(c2ncc(C(F)(F)F)cn2)[C@@H](CO)C1 [Example 73, (S)-1-(6-Oxo-5-(trifluoromethyl)-1,6-dihydropyridin-3-yl)propan-2-yl (R)-3-(hydroxymethyl)-4-(5-(trifluoromethyl)pyrimidin-2-yl)piperazine-1-carboxylate] | 0.75
3 | C[C@@H](Cc1c[nH]c(=O)c(C(F)(F)F)c1)OC(=O)N1CCN(c2ncc(CO)cn2)CC1 [Example 75, (S)-1-(6-Oxo-5-(trifluoromethyl)-1,6-dihydropyridin-3-yl)propan-2-yl 4-(5-(hydroxymethyl)pyrimidin-2-yl)piperazine-1-carboxylate] | 0.83
4 | C[C@@H](Cc1c[nH]c(=O)c(C(F)(F)F)c1)OC(=O)N1CCN(c2cnc(C#N)cn2)CC1 [Example 76, (S)-1-(6-Oxo-5-(trifluoromethyl)-1,6-dihydropyridin-3-yl)propan-2-yl 4-(5-cyanopyrazin-2-yl)piperazine-1-carboxylate] | 0.67
5 | C[C@@H](Cc1c[nH]c(=O)c(C(F)(F)F)c1)OC(=O)N1CC2CN(c3ncc(C(F)(F)F)cn3)CC2C1 (stereo partly drawn) [Example 77, (S)-1-(6-Oxo-5-(trifluoromethyl)-1,6-dihydropyridin-3-yl)propan-2-yl 5-(5-(trifluoromethyl)pyrimidin-2-yl) hexahydropyrrolo[3,4-c]pyrrole-2(1H)-carboxylate] | 2.15
6 | C[C@@H](Cc1c[nH]c(=O)c(C(F)(F)F)c1)OC(=O)N1CCN(c2ncc(C(F)(F)F)cn2)C[C@@H]1CO [Example 78, (S)-1-(6-Oxo-5-(trifluoromethyl)-1,6-dihydropyridin-3-yl)propan-2-yl (R)-2-(hydroxymethyl)-4-(5-(trifluoromethyl)pyrimidin-2-yl)piperazine-1-carboxylate] | 1.4
7 | C[C@@H](Cc1c[nH]c(=O)c(C(F)(F)F)c1)OC(=O)N1CCN(c2ncc(C(F)(F)F)cn2)C[C@H]1CO [Example 79, (S)-1-(6-Oxo-5-(trifluoromethyl)-1,6-dihydropyridin-3-yl)propan-2-yl (S)-2-(hydroxymethyl)-4-(5-(trifluoromethyl)pyrimidin-2-yl)piperazine-1-carboxylate] | 0.68
8 | C[C@@H](Cc1c[nH]c(=O)c(C(F)(F)F)c1)OC(=O)N1CCN(c2ncc(C(F)(F)F)cn2)[C@H](CO)C1 [Example 80, (S)-1-(6-Oxo-5-(trifluoromethyl)-1,6-dihydropyridin-3-yl)propan-2-yl (S)-3-(hydroxymethyl)-4-(5-(trifluoromethyl)pyrimidin-2-yl)piperazine-1-carboxylate] | 1.5
9 | Cc1c(C[C@H](C)OC(=O)N2CCN(c3ncc(C(F)(F)F)cn3)CC2)c[nH]c(=O)c1C(F)(F)F [Example 81, (S)-1-(4-Methyl-6-oxo-5-(trifluoromethyl)-1,6-dihydropyridin-3-yl)propan-2-yl 4-(5-(trifluoromethyl)pyrimidin-2-yl)piperazine-1-carboxylate] | 0.75
10 | O=C(O[C@H]1CCC[C@H]1c1c[nH]c(=O)c(C(F)(F)F)c1)N1CCN(c2ncc(C(F)(F)F)cn2)CC1 [Example 82, (1S,2S)-2-(6-Oxo-5-(trifluoromethyl)-1,6-dihydropyridin-3-yl)cyclopentyl 4-(5-(trifluoromethyl)pyrimidin-2-yl)piperazine-1-carboxylate] | 1.44
11 | CC(OC[C@@H]1CCCN1c1c[nH]c(=O)c(C(F)(F)F)c1)C(=O)N1CCN(c2ncc(C(F)(F)F)cn2)CC1 (stereo partly drawn) [Example 83] | 1.38
12 | Cc1cnc(N2CCN(C(=O)O[C@@H](C)Cc3c[nH]c(=O)c(C(F)(F)F)c3)CC2)nc1 [Example 84, (S)-1-(6-Oxo-5-(trifluoromethyl)-1,6-dihydropyridin-3-yl)propan-2-yl 4-(5-methylpyrimidin-2-yl)piperazine-1-carboxylate] | 0.52
13 | C[C@@H](Cc1c[nH]c(=O)c(C(F)(F)F)c1)OC(=O)N1CCN(c2ncc(Cl)cn2)CC1 [Example 85, (S)-1-(6-Oxo-5-(trifluoromethyl)-1,6-dihydropyridin-3-yl)propan-2-yl 4-(5-chloropyrimidin-2-yl)piperazine-1-carboxylate] | 0.56
14 | C[C@@H](Cc1c[nH]c(=O)c(C(F)(F)F)c1)OC(=O)N1CCN(c2ccc(C(F)(F)F)cn2)CC1 [Example 86, (S)-1-(6-Oxo-5-(trifluoromethyl)-1,6-dihydropyridin-3-yl)propan-2-yl 4-(5-(trifluoromethyl)pyridin-2-yl)piperazine-1-carboxylate] | 0.6
15 | CNC(=O)c1cnc(N2CCN(C(=O)O[C@@H](C)Cc3c[nH]c(=O)c(C(F)(F)F)c3)CC2)nc1 [Example 87, (S)-1-(6-Oxo-5-(trifluoromethyl)-1,6-dihydropyridin-3-yl)propan-2-yl 4-(5-(methylcarbamoyl)pyrimidin-2-yl)piperazine-1-carboxylate] | 0.5
16 | CNC(=O)c1ccc(N2CCN(C(=O)O[C@@H](C)Cc3c[nH]c(=O)c(C(F)(F)F)c3)CC2)cn1 [Example 88, (S)-1-(6-Oxo-5-(trifluoromethyl)-1,6-dihydropyridin-3-yl)propan-2-yl 4-(6-(methylcarbamoyl)pyridin-3-yl)piperazine-1-carboxylate] | 1.98
17 | C[C@@H](Cc1c[nH]c(=O)c(C(F)(F)F)c1)OC(=O)N1CCN(C(=O)C2CC2)CC1 [Example 90, (S)-1-(6-Oxo-5-(trifluoromethyl)-1,6-dihydropyridin-3-yl)propan-2-yl 4-(cyclopropanecarbonyl)piperazine-1-carboxylate] | 1.08
18 | C[C@@H]1CN(c2ncc(C(F)(F)F)cn2)CCN1C(=O)O[C@@H](C)Cc1c[nH]c(=O)c(C(F)(F)F)c1 [Example 91, (S)-1-(6-Oxo-5-(trifluoromethyl)-1,6-dihydropyridin-3-yl)propan-2-yl (R)-2-methyl-4-(5-(trifluoromethyl)pyrimidin-2-yl)piperazine-1-carboxylate] | 0.78
19 | C[C@@H](Cc1c[nH]c(=O)c(C(F)(F)F)c1)OC(=O)N1CCN(c2ncc(C(F)(F)F)cn2)C[C@@H]1C [Example 92, (S)-1-(6-Oxo-5-(trifluoromethyl)-1,6-dihydropyridin-3-yl)propan-2-yl (S)-2-methyl-4-(5-(trifluoromethyl)pyrimidin-2-yl)piperazine-1-carboxylate] | 0.19
20 | C[C@@H]1CN(C(=O)O[C@@H](C)Cc2c[nH]c(=O)c(C(F)(F)F)c2)CCN1c1ncc(C(F)(F)F)cn1 [Example 94, (S)-1-(6-Oxo-5-(trifluoromethyl)-1,6-dihydropyridin-3-yl)propan-2-yl (R)-3-methyl-4-(5-(trifluoromethyl)pyrimidin-2-yl)piperazine-1-carboxylate] | 0.68
21 | O=C(Oc1cccc(-c2c[nH]c(=O)c(C(F)(F)F)c2)c1)N1CCN(c2ncc(C(F)(F)F)cn2)CC1 [Example 95, 3-(6-Oxo-5-(trifluoromethyl)-1,6-dihydropyridin-3-yl)phenyl 4-(5-(trifluoromethyl)pyrimidin-2-yl)piperazine-1-carboxylate] | 0.72

Source: patent US20240351997A1, “NOVEL PARP7 INHIBITOR AND USE THEREOF” (SHANGHAI QILU PHARMACEUTICAL RESEARCH AND DEVELOPMENT …, priority 2021, published 2024)
